# Test results taken from PMC12362783 (Advanced Science, 2025).
# Experiments:
# ATR = molecular target: T1, ATR (Homo sapiens, UniProt Q13535); experiment: ATR kinase inhibition, Mobility Shift Assay; format: biochemical; conditions: n = 3, mean ± SD
# T1 construct: purchased Eurofins 14-953
# Method: The in vitro ATR kinase inhibitory activities were determined by ChemPartner Co., Ltd. (Shanghai, China) using the Mobility Shift Assay. The tested compound was dissolved with DMSO and diluted to 1000/3 × of the final desired highest inhibitor concentration in the reaction. […] The assay wells were incubated at 28 °C for 4 h.
# MDA‐MB‐231 cells [1] = experiment: Cell apoptosis assay, Annexin V‐FITC/PI; format: cell-based; conditions: MDA‐MB‐231, 72 h
# Method: (§1) The cell apoptosis analysis was performed with cells seeded in 6‐well plates in growth media. The cells were allowed to attach overnight (8 h). The cultures were treated with different tested drugs for 72 h and evaluated using an Annexin V Flow Kit (BioLegend#B367750) according to the manufacturer's instructions. The data were analyzed by FlowJo software (Tree Star, Inc., Ashland, OR).
# MDA‐MB‐468 cells [2] = experiment: Cell apoptosis assay, Annexin V‐FITC/PI; format: cell-based; conditions: MDA‐MB‐468, 72 h
# Method: as §1
# MDA‐MB‐468 cells [3] = experiment: Western blotting analysis; format: cell-based; conditions: 48 h
# Method: Cells were washed with cold PBS and lysed in RIPA buffer containing protease inhibitors (MCE, HY‐K0010). The lysate was centrifuged (13 000 rpm, 4 °C, 15 min); the protein concentrations were determined by the BCA Assay Kit (Beyotime, p0012s). Proteins were loaded onto 10% SDS‐PAGE gel and then transferred onto polyvinylidene fluoride (Millipore) membranes. The membranes were blocked for 1 h, incubated with primary antibodies overnight at 4 °C, and then washed three times with Tris‐buffered saline with Tween 20 (TBST) for 10 min. After incubating with the secondary HRP antibody for 1 h at room temperature, the membranes were washed three times with TBST for 10 min and then exposed on autoradiograph films using enhanced chemiluminescence. The primary antibodies used were ATR (1/1000 dilution, CST#13 934), PARP1 (1/1000 dilution, CST#9532), BCL‐2 (1/1000 dilution, CST#4223), Bax (1/1000 dilution, CST#5023), Caspase 3 (1/1000 dilution, CT#9662), Cleaved caspase 3 (1/1000 dilution, CST#9661), E‐cadherin (1/1000 dilution, CST#3195), Vimetin (1/1000 dilution, CST#5741), p‐CHK1 (1/1000 dilution, CST#2348), CHK1 (1/1000 dilution, CST#2360), CDK1 (Proteintech#19532‐1‐AP), p‐CDK1 (CST#9114), γH2AX (1/1000 dilution, CST#9718), and β‐Actin (1/1000 dilution, Proteintech# 66009‐1‐Ig).
# MDA‐MB‐231 cells [4] = experiment: Transwell invasion assay (Matrigel); format: cell-based; conditions: 24 h, vs AZD6738 and Olaparib alone or their combination
# Method: (§2) For the wound‐healing assay, MDA‐MB‐231 cells were seeded into 6‐well plates and grown to 80% confluence. A scratch was made in the cell monolayer using a 20 µL pipette tip, and the cells were washed with PBS to remove floating cells and debris. The cells were then incubated in serum‐free medium. Cells are divided into control and drug treatment Cells in the scratched area were imaged at 0 and 48 h using microscopy, and the distance traveled by cells at the leading edge of the wound at each time point was measured. To assess cell migration, a transwell assay was performed. […] Following 24 h of incubation, the filters were fixed in 4% paraformaldehyde, stained with 0.1% crystal violet, and then imaged and counted under a microscope to determine the number of invading cells. To assess cell invasion, the transwell plate was coated with a layer of Matrigel, and the rest procedure is similar to what has been described above.
# MDA‐MB‐468 cells [5] = experiment: Transwell invasion assay (Matrigel); format: cell-based; conditions: 24 h, vs AZD6738 and Olaparib alone or their combination
# Method: as §2
# PARP1 = PARP1 (Homo sapiens, UniProt P09874); experiment: PARP enzymatic inhibition ELISA (PARP1); format: biochemical; conditions: n = 3, mean ± SD
# MDA‐MB‐436 = experiment: Cell growth inhibition, CellTiter‐Glo (CTG); format: cell-based; conditions: Homo sapiens, MDA-MB-436, 120 h; CTG, 5 days, n = 3
# Method: All cells were grown in a humidified incubator at 37 °C and 5% CO2.
# Growth viability was determined by the CellTiter‐Glo luminescent viability assay (Promega) 5 days after drug treatment. Cell viability was measured immediately after dosing (Day 0) and after 5 days of incubation using CellTiter‐Glo (CTG, Promega, G7573). Relative viability was calculated by normalizing the raw luminescence counts of the treated groups to those of the DMSO control groups. IC₅₀ values were calculated using sigmoidal dose‐response curve fitting with GraphPad Prism 9.0 software.
# MDA‐MB‐231 cells [6] = experiment: Comet assay, DNA damage; format: cell-based; conditions: 24 h, vs AZD6738, Olaparib, and their combination
# MDA‐MB‐231 cells [7] = experiment: Colony formation assay; format: cell-based; conditions: 1.0 µM, 10 days, vs AZD6738, Olaparib alone or combination
# Method: (§3) The colony formation assay was performed with cells seeded in 6‐well plates (10 000 cells/well). After 10 days, cells were fixed with methanol and stained with crystal violet. The number of colonies was counted. Data represent the means ± SD from 3 independent experiments performed in triplicate wells.
# MDA‐MB‐468 cells [8] = experiment: Colony formation assay; format: cell-based; conditions: 1.0 µM, 10 days, vs AZD6738, Olaparib alone or combination
# Method: as §3
# DNA‐PK = DNA‐PK (Homo sapiens, UniProt P78527); experiment: PIKK family kinase selectivity; format: biochemical
# PARP2 = PARP2 (Homo sapiens, UniProt Q9UGN5); experiment: PARP family selectivity; format: biochemical
# Method: (§4) The PARP activity assay was performed by ChemPartner (Shanghai, China). Each well was precoated with histone (final conc.: 100 ng mL^−1) diluted in PBS buffer (contains 10 mmol L^−1 NaH2PO4 and 150 mmol L^−1 NaCl, pH 7.4) by incubation at 4 °C overnight. […] The reaction was initiated by the addition of 10 µL of PARP (final conc.: 0.007 nM/well) at room temperature for 60 min. Add 20 µL of anti‐Poly/Mono‐ADP Ribose Rabbit mAb. Incubate for 1.5 h at room temperature and wash the plate three times using PBST buffer. […] Incubate for 1 h at room temperature and wash the plate three times using PBST buffer. Add 25 µL Femto‐ECL Substrate A and Femto‐ECL Substrate B (1:1) mix. Immediately read chemiluminescence on Envision (Revvity, USA).
# PARP7 = PARP7 (Homo sapiens, UniProt Q7Z3E1); experiment: PARP family selectivity; format: biochemical
# Method: as §4
# [9] = compared to the combination group
# Chain of PARP2 (Q9UGN5 whole entry, species assumed): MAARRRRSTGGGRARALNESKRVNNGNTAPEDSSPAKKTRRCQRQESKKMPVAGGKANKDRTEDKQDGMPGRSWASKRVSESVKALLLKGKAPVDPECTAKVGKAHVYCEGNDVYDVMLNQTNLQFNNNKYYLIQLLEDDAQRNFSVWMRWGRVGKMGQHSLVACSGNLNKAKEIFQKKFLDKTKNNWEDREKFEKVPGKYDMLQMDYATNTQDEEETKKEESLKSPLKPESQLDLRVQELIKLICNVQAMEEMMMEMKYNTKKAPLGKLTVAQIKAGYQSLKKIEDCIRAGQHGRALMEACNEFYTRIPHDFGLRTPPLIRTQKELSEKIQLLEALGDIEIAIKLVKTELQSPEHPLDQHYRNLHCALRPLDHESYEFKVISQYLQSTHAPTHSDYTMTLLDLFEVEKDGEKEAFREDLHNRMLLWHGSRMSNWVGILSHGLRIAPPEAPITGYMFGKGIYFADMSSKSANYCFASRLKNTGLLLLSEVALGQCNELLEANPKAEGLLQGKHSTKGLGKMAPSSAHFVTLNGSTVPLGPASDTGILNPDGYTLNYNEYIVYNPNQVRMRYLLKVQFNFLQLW
# Chain of PARP7 (Q7Z3E1 whole entry, species assumed): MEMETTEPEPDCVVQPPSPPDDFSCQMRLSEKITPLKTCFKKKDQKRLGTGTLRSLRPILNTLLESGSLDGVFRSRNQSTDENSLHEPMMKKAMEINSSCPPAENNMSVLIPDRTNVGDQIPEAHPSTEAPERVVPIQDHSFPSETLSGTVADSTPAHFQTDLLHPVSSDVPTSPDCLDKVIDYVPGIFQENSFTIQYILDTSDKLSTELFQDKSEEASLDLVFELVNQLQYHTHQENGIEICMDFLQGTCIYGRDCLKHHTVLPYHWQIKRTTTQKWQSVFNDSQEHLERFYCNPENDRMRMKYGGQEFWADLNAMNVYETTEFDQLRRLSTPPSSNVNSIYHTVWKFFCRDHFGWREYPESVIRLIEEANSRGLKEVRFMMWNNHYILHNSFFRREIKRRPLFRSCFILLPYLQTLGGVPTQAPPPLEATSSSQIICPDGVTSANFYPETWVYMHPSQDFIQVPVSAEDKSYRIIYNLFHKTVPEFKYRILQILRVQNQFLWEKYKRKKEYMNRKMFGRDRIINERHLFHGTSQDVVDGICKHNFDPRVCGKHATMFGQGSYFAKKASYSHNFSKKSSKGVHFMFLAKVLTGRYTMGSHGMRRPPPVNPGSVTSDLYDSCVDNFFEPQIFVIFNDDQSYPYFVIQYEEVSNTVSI
# Chain of PARP1 (P09874 whole entry): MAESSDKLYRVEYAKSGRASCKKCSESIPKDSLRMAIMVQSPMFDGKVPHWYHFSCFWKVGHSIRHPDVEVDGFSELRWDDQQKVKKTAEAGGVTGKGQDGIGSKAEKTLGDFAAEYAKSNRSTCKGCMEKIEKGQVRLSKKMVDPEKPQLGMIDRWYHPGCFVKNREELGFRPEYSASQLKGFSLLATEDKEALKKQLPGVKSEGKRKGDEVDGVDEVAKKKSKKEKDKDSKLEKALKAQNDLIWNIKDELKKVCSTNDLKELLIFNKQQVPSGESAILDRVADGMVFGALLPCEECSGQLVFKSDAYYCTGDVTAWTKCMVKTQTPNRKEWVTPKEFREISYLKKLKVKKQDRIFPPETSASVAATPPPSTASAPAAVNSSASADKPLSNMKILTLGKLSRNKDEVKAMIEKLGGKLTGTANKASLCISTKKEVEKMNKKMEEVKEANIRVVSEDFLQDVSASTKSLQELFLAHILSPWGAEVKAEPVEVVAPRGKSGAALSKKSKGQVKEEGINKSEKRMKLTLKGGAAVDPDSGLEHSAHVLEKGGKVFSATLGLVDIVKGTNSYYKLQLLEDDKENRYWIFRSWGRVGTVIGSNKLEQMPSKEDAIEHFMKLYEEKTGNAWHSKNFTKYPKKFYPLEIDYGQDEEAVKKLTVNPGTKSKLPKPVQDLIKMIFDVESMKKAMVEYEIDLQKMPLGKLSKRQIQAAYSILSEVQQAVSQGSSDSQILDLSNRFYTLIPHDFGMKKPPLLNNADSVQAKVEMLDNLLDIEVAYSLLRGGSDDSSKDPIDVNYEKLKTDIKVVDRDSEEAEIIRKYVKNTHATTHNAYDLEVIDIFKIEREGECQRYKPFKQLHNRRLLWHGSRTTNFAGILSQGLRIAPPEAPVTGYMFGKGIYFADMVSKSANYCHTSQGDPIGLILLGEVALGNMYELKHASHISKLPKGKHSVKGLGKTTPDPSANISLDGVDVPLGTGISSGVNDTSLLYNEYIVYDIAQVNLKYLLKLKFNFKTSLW
compound,measurement,setting,value
"C[C@@H]1COCCN1c1cc(CNC(=O)c2ccc(C(=O)N3CCN(C(=O)c4cc(Cc5n[nH]c(=O)c6ccccc56)ccc4F)CC3)cc2)nc(-c2ccnc3[nH]ccc23)n1 [Compound B8, (R)‐4‐(4‐(2‐fluoro‐5‐((4‐oxo‐3,4‐dihydrophthalazin‐1‐yl)methyl)benzoyl)piperazine‐1‐carbonyl)‐N‐((6‐(3‐methylmorpholino)‐2‐(1H‐pyrrolo[2,3‐b]pyridin‐4‐yl)pyrimidin‐4‐yl)methyl) benzamide]",IC50,ATR,17.3 ± 2.5 nM
same,ability to induce apoptosis vs combination of AZD6738 and Olaparib,MDA‐MB‐231 cells [1],markedly stronger capacity to induce apoptosis
same,ability to induce apoptosis vs combination of AZD6738 and Olaparib,MDA‐MB‐468 cells [2],markedly stronger capacity to induce apoptosis
same,BCL‐2 protein expression (Western blot),MDA‐MB‐468 cells [3],significantly decreased the protein expression of BCL‐2
same,CDK1 Tyr15 phosphorylation (Western blot),MDA‐MB‐468 cells [3],enhanced CDK1 Tyr15 phosphorylation
same,CHK1 Ser345 phosphorylation (Western blot),MDA‐MB‐468 cells [3],significantly decreased CHK1 Ser345 phosphorylation
same,E‐cadherin expression (Western blot),MDA‐MB‐468 cells [3]; [9],significant increase in the expression of the epithelial cell marker E‐cadherin
same,Vimentin expression (Western blot),MDA‐MB‐468 cells [3]; [9],decrease in the expression of the mesenchymal cell marker Vimentin
same,BAX and cleaved‐caspase‐3 protein expression (Western blot),MDA‐MB‐468 cells [3]; compared to the combination of AZD6738 and Olaparib,induced more BAX and cleaved‐caspase‐3 protein expression
same,DSB marker γH2AX (Western blot),MDA‐MB‐468 cells [3]; B8 1.0 and 2.0 µM,significantly increased than under the combination treatment
same,protein levels of ATR and PARP1 (Western blot),"MDA‐MB‐468 cells [3]; B8 1.0 and 2.0 µM, vs Olaparib or AZD6738 alone or in combination",reduction in the protein levels of both ATR and PARP1
same,invasive capacity,MDA‐MB‐231 cells [4],superior inhibitory effects on the invasive capacity
same,invasive capacity,MDA‐MB‐468 cells [5],superior inhibitory effects on the invasive capacity
same,IC50,PARP1,0.38 ± 0.08 nM
same,IC50,MDA‐MB‐436,9 ± 2 nM
same,comet assay tail intensity,MDA‐MB‐231 cells [6],markedly increased tail intensity
same,colony formation rate,MDA‐MB‐231 cells [7],significantly greater inhibitory effect on the colony formation rate
same,colony formation rate,MDA‐MB‐468 cells [8],significantly greater inhibitory effect on the colony formation rate
same,IC50,DNA‐PK,> 5000 nM
same,IC50,PARP2,5.1 nM
same,"PARP2 (selectivity over PARP1, fold)",PARP2; fold of PARP1 selectivity over PARP2,13.4 fold
same,IC50,PARP7,28.5 ± 1.3 nM
same,"PARP7 (selectivity over PARP1, fold)",PARP7; fold of PARP1 selectivity over PARP7,75 fold
